Assay results as given in US20060153844A1, “Methods to trigger, maintain and manipulate immune responses by targeted administration of biological response modifiers into lymphoid organs” (priority 2004, published 2006).
Entries after “also recorded” stand apart in the source; their conditions may differ.

Key:
PLA2-specific IgG = PLA2-specific IgG by ELISA after PLA2 plus titrated CpG; assay type: in vivo, CBA/J mice
Protocol: The doses of CpG required to enhance Th1-dependent IgG immune responses against an allergen, and whether intralymphatic administration could reduce the required dose of CpG were evaluated. PLA2, the major allergen from bee venom, was used as a model allergen. CBA/J mice were immunized biweekly with […] ODN-1668pt together with 0.1 μg of PLA2 either intralymphatically (A) or subcutaneously (B). Three weeks after the third injection, sera of mice were collected and PLA2-specific IgG was determined by ELISA (FIG. 9). Values represent means and standard deviations obtained from three mice per group. One representative of two similar experiments is shown.

splenocyte = conditions: mouse, in vivo, sc
Protocol: C57BL/6 mice were treated with different doses of CpG and euthanized 8 days later for analysis of the spleen. […] The means±SEM (n=3) are shown. […] The means±SEM (n=3) are shown.

DCs = experiment: activation of lymph node DCs, up-regulation of CD80 and CD86 (flow cytometry); assay type: in vivo, C57BL/6 mice
Protocol: To assess CpG-induced activation of professional APCs, C57BL/6 mice received titrated amounts of CpG ODN 1668pt either subcutaneously by injection into the inguinal region or by direct injection into the inguinal lymph node. After one day the inguinal lymph nodes were collected and DCs were isolated by Collagenase D digestion and positive isolation using anti-CD11c magnetic beads. Activation of DCs was assessed by measuring up-regulation of CD80 and CD86 (FIGS. 3A and B). Values represent the mean fluorescence intensity (MFI) measured by flow cytometry. As control, mice were immunized i.ln. with saline solution. Lymph node cells pooled from three mice per group were used for the analysis. At least 1.5×10^4 CD11c^+ cells were acquired per condition. […] Note that an intralymphatic control injection with saline induced slight upregulation of CD80 and CD86. This may be explained by the physical lymph node damage produced by the needle. Thus, although both sites of injection are very close to each other, direct intralymphatic administration reduced the dose of CpG that is necessary for DC maturation by 10-50 fold.

[1] = tested on: EL-4 target cells pulsed with the ovalbumin peptide epitope; experiment: direct ex vivo CTL activity, 51Cr-release assay after OVA plus CpG; assay type: in vivo, C57BL/6 mice; conditions: seven days later
Protocol: The optimal intralymphatic dose of CpG for CTL induction was evaluated and compared to the optimal subcutaneous dose. C57BL/6 mice were injected with OVA alone or in combination with CpG ODN 1668pt. CD8 T cell responses were tested for direct ex vivo CTL activity seven days later using ^51Cr-release assays on EL-4 target cells pulsed with the ovalbumin peptide epitope (SEQ. ID. No. 2) at various effector to target cell ratios. Two dilution series of effector cells per mouse were performed. The means±SEM (n=3) are shown (see FIG. 4). […] The CTL activity was correlated with the frequency of CD8 lymphocytes staining positive for intracellular IFN-γ as measured by flow cytometry (data not shown).

[2] = tested on: CD4 or CD8 positive lymphocytes; experiment: intracellular IFN-γ in spleen CD4 and CD8 T cells by flow cytometry; assay type: in vivo, CBA/J mice; conditions: two weeks after further boost of PLA2 and adjuvant; percentage and absolute number
Protocol: Two weeks later spleen cells were isolated, and analysed directly for intracellular IFN-γ by flow cytometry (FIG. 11) or analyzed for IFN-γ, IL-4 and IL-10 secretion by ELISA after four days cultivation with 10 μg/ml PLA2 (FIG. 12). For FIG. 11, intracellular IFN-γ was measured by flow cytometry after four hours stimulation of cells with PdBu and ionomycin (both at 500 ng/ml) in the presence of brefeldin A (10 μg/ml). The cells were then incubated with anti-CD16/CD32 for Fc-recptor blocking and stained on ice and in PBS/FCS 2% with fluorescent-labelled Abs against CD4, CD8 and CD44 (all Abs from BD Biosciences (Franklin Lakes, N.J.). Cells were subsequently fixed with 4% paraformaldehyde and permeabilised with 0.1% Nonidet P-40 before staining with Ab against IFN-γ. Four-color cytometry were performed on a FACSCalibur flow cytometer (BD Biosciences, San Jose, Calif.). Cells were gated on CD4 or CD8 positive lymphocytes and the results expressed as means (±S.D.) for three mice, as percent of T-cell subset (A) or as absolute numbers in the spleen (B). One representative out of two immunization experiments is shown. […] Supernatants were collected after 96 hours incubation and IL-4, IL-10 and IFN-γ concentrations determined by ELISA from R&D Systems (Abingdon, United Kingdom). […]

[3] = tested on: PLA2-specific IgG2a and IgG1 antibodies; experiment: anti-PLA2 IgG2a, IgG1 and IgE in sera after intralymphatic PLA2 plus TLR ligand; assay type: in vivo, CBA/J mice; conditions: for kinetics of the antibody production (time of maximum titers): i.ln. with 0.1 μg PLA2, sera over 13 weeks; for anti-PLA2 antibody isotypes induced (IgG2a, IgG1): i.ln. with 0.1 μg PLA2, three injections; for sero-conversion: seven weeks after the first and three weeks after last injection, i.ln. with 0.1 μg PLA2
Protocol: The compounds were mixed within an hour before injection into the inguinal lymph node.
The sera were obtained over 13 weeks and analyzed by ELISA for anti-PLA2 IgG2a (FIG. 10A) and IgG1 (FIG. 10B). The ratio of IgG2a to IgG1 titers was calculated as a measure for Th1/Th2 immune response balance (FIG. 10C). […] Pre-immunization levels of anti-PLA2 antibodies were measured on sera from five mice taken the day before first injection.

splenocytes = experiment: IFN-γ, IL-4 and IL-10 secretion of splenocytes cultured with PLA2 (ELISA); assay type: in vivo, CBA/J mice; conditions: for IFN-γ secreted (ELISA): versus LPS or 3M003 P<0.01
Protocol: Two weeks later spleen cells were isolated, and analysed directly for intracellular IFN-γ by flow cytometry (FIG. 11) or analyzed for IFN-γ, IL-4 and IL-10 secretion by ELISA after four days cultivation with 10 μg/ml PLA2 (FIG. 12). For FIG. 11, intracellular IFN-γ was measured by flow cytometry after four hours stimulation of cells with PdBu and ionomycin (both at 500 ng/ml) in the presence of brefeldin A (10 μg/ml). The cells were then incubated with anti-CD16/CD32 for Fc-recptor blocking and stained on ice and in PBS/FCS 2% with fluorescent-labelled Abs against CD4, CD8 and CD44 (all Abs from BD Biosciences (Franklin Lakes, N.J.). Cells were subsequently fixed with 4% paraformaldehyde and permeabilised with 0.1% Nonidet P-40 before staining with Ab against IFN-γ. Four-color cytometry were performed on a FACSCalibur flow cytometer (BD Biosciences, San Jose, Calif.). Cells were gated on CD4 or CD8 positive lymphocytes and the results expressed as means (±S.D.) for three mice, as percent of T-cell subset (A) or as absolute numbers in the spleen (B). One representative out of two immunization experiments is shown. For FIG. 12, after homogenisation of spleens and lysis of red blood cells, 5×10^5 splenocytes were cultured with […] PLA2 protein in 200 μl IMDM (Gibco) supplemented with L-glutamine (4 mM), FCS (10%), mercaptoethanol (75 μM), as well as streptomycin and ampicillin. Supernatants were collected after 96 hours incubation and IL-4, IL-10 and IFN-γ concentrations determined by ELISA from R&D Systems (Abingdon, United Kingdom). Cytokine concentrations in supernatants as determined by ELISA after subtraction of spontaneous cytokine secretion was determined upon in vitro stimulation with an irrelevant antigen (ovalbumin). Statistical differences between the different groups were indicated when significant (P<0.01). One representative out of two immunization experiments is shown.

[4] = of the 17 patients receiving IL-12 in the phase II study; cited from earlier work
CD8+ T cell population = experiment: tetramer and CD8 double staining after intranodal Melan-A peptide plus BRM; assay type: in vivo; conditions: for immune response by tetramer staining: intranodal Melan-A peptide alone, plus 0.1 nmole CpG ODN or plus 25 μg polyI:C, days 0, 3, 14 and 17
From the text: H-2 class I-negative, HLA-A2.1-transgenic (HHD-1) mice (Pascolo, S., et al., J Exp Med. 185:2043-2051, 1997 (which is incorporated herein in its entirety)) were housed under pathogen-free conditions and used for evaluation of the immunogenicity of HLA-A2.1-restricted human tumor-associated cytotoxic T lymphocyte (CTL) epitopes. Female mice 8-12 weeks of age were used for intralymphatic immunization and for isolation of splenocytes for in vivo cytotoxicity studies. […] A total of four rounds of injections were given, on days 0, 3, 14 and 17.
The immune response was measured by tetramer and CD8 double staining of splenocytes from the immunized mice. Mononuclear cells isolated from peripheral blood after density centrifugation (Lympholyte Mammal, Cedarlane Labs) with HLA-A*0201 MART1 (SEQ. ID. No. 3)-PE MHC tetramer (Beckman Coulter) and FITC conjugated rat anti-mouse CD8a (Ly-2) monoclonal antibody (BD Biosciences). Data was collected using a BD FACS Calibur flow cytometer and analysed using Cellquest software by gating on the lymphocyte population and calculating the percent of tetramer^+ cells within the CD8^+ CTL population. The results (see FIG. 5) were expressed as means±SEM of % tetramer stained cells within the CD8+ T cell population (A), and with specific dot plot plots representative for each group (B). Splenocytes from naive transgenic mice were included as controls.

[5] = tested on: Human melanoma tumor target cells, 624.38 (Melan-A^+, HLA-A2^+); experiment: in vivo clearance of human melanoma tumor cells from pulmonary tissue; set-up: species or system HHD-1 mice; conditions: mice immunized intranodally as in Example 4, challenged i.v. with 624.38 cells
Protocol: The effectiveness of CTL generated as described in Example 4 was assessed as in vivo clearance of tumor cells from pulmonary tissue in mice challenged with Melan-A^+ tumor cells. Human melanoma tumor target cells, 624.38 (Melan-A^+, HLA-A2^+) were cultured in RPMI medium supplemented with 10% fetal bovine serum (Hyclone), 0.1 mM non-essential amino acids, and 0.3 mg/mL L-glutamine in a 5% CO2 incubator at 37° C. The HLA-A2^− subclone, 624.28, was grown under the same conditions and served as a negative control. Specific targets were prepared by incubating 10^8 624.38 cells with 2.5 μM CFSE in PBS for 20 minutes (CFSE^hi) and 10^8 HLA-A2^−, 624.28 target controls were labelled with 0.25 μM CFSE (CFSE^lo). Each immunized HHD-1 mouse was intravenously injected in the tail vein with a mixture of 10^7 CFSE^hi 624.38 and 10^7 CFSE^lo 624.28 cells followed by an identical injection 3 hours later. Un-immunized HHD-1 mice were also injected and served as naïve controls. […] The mononuclear cells were then isolated by density centrifugation and CFSE positive cells were analysed by FACS. The in vivo specific lysis of human melanoma target cells in the lung was calculated by the following formula: [(1−% CFSE^hi/% CFSE^lo)−(1−% CFSE^hiControl/% CFSE^loControl)]

[6] = tested on: ^51Cr-labeled target cells (T2 cells); experiment: standard cytotoxic assay after intranodal peptide plus polyI:C; assay type: in vivo, HHD-A2 transgenic mice; conditions: 12.5 μg peptide+12.5 μg polyI:C per inguinal lymph node, day 0, 3, 14 and 17; targets pulsed with peptide or tumor cells
Protocol: HHD-A2 transgenic mice (n=4/group) were immunized with various peptides (see Table 1) admixed with polyI:C, by direct inoculation into the inguinal lymph nodes (12.5 μg peptide+12.5 μg of adjuvant, in 25 μl of PBS/each inguinal lymph node at day 0, 3, 14 and 17). One week after the final administration, splenocytes were stimulated ex vivo with 10 μg/ml of peptide in presence of 5 U/ml of rIL-2 and tested in a standard cytotoxic assay, against ^51Cr-labeled target cells (T2 cells) uncoated or coated with cognate peptide, at various Effector:Target ratios. Alternatively, in the case of PSMA 288-297 epitope, cytotoxicity was measured against PSMA expressing human tumor cells (LNCap) cells coated or not with 10 μg/ml of MHC class I blocking antibody (W6/32). Cytotoxicity resulting from immunization with the NY-ESO-1 157-165 epitope was also assessed against 624.28 and 624.38 cells that had been transformed to express a GFP/NY-ESO-1 fusion protein.

Substance: CpG ODN 1668pt: CpG ODN 1668pt (SEQ. ID. No. 1), unmethylated CpG oligodeoxynucleotide, TLR9 ligand (DNA TCCATGACGTTCCTGAATAAT; DNA, backbone not given here)
- PLA2-specific antibody responses (PLA2-specific IgG; intralymphatic, high CpG dose of 10 nmol): no antibody responses were detectable
- PLA2-specific antibody titers (PLA2-specific IgG; intralymphatic, low CpG doses of 0.1 and 0.01 nmol): highest antibody titers
- PLA2-specific IgG, adjuvant effect (PLA2-specific IgG; subcutaneously, CpG 0.1 and 0.01 nmol): an adjuvant effect was no longer detectable
- PLA2-specific IgG titers (PLA2-specific IgG; subcutaneously, CpG doses of 10 and 1 nmol with 0.1 μg PLA2): highest IgG titers
- changes of B lymphocytes in spleen (splenocyte): Only moderate changes
- relative amounts of CD4 and CD8 T cells as well as NK cells (splenocyte): substantially reduced in a dose-dependent manner
- expression of CD80 and CD86 on DCs (DCs; 10 and 1 nmol, regardless of the route, after one day): significantly enhanced expression of CD80 and CD86
- reduction of the dose of CpG necessary for DC maturation (DCs; direct intralymphatic versus subcutaneous administration): 10-50 fold
- DC maturation (DCs; low CpG doses of 0.1 and 0.01 nmol, i.ln. versus s.c.): only direct injection into the inguinal lymph node induced significant DC maturation
- CTL activity ([1]; subcutaneous vaccination with OVA plus CpG): did not elicit CTL activity
- CTL activity ([1]; vaccinated intralymphatically with OVA plus CpG): significant induction of cytotoxic CD8 T cells even at 0.01 nmol CpG

Substance: CpG: phosphorothioate-modified CpG ODN 1826 (SEQ. ID. No. 10), TLR 9 ligand, Examples 8 and 9 (DNA TCCATGACGTTCCCTGACGTT; DNA, all phosphorothioate, methylation of C not given here)
- IFN-γ producing CD8-positive and CD4-positive T cells [2]: strongest effect
- serum concentration of IgG1 relative to the titers induced by LPS or PolyI:C ([3]; geometrically, 10 and 13 weeks): 30-50%
- kinetics of the antibody production (time of maximum titers) [3]: a delay in the IgG1 antibody production
- anti-PLA2 antibody isotypes induced (IgG2a, IgG1) [3]: induced IgG2a
- IgG1 in seven-week sera ([3]; seven weeks after initiating immunization): hardly detectable
- sero-conversion [3]: notable sero-conversion
- IL-4 secretion (splenocytes; compared with 3M003 and PolyI:C (P<0.01) or LPS (P<0.05)): significantly reduced IL-4 secretion
- IL-10 production (splenocytes; splenocytes cultured with PLA2): the strongest IL-10 production
- IFN-γ secreted (ELISA) (splenocytes; splenocytes cultured with PLA2): highest amounts of IFN-γ

Substance: IL-12: co-stimulatory cytokine
- patients died [4]: 2 patients
- patients hospitalized [4]: 12 patients

Substance: Melan-A peptide: Melan-A peptide (SEQ. ID. No. 3), A27L analogue of the A2-restricted Melan-A 26-35 epitope
- immune response by tetramer staining (CD8+ T cell population): readily detectable response by tetramer staining; also recorded: not very effective in inducing a robust T cell population expansion

Substance: peptidoglycan
- kinetics of the antibody production (time of maximum titers) [3]: peak titers were delayed
- anti-PLA2 antibody isotypes induced (IgG2a, IgG1) [3]: induced predominantly IgG2a

Substance: polyriboinosinic polyribocytidylic acid [polyI:C]
- immune response by tetramer staining (CD8+ T cell population): robust antigen specific response
- systemic acute phase reaction, mortality or morbidity at the dose used (CD8+ T cell population; intranodal, 0.1 nmole CpG ODN or 25 μg polyI:C): not associated with observed mortality or morbidity
- kinetics of the antibody production (time of maximum titers) [3]: maximum levels of antibodies within three weeks of the final boost injection
- anti-PLA2 antibody isotypes induced (IgG2a, IgG1) [3]: high antibodies titers of both IgG1 and IgG2a isotypes
- sero-conversion [3]: notable sero-conversion
- IFN-γ secreted (ELISA) (splenocytes; splenocytes cultured with PLA2): highest amounts of IFN-γ
- in vivo lysis of human melanoma target cells in the lung [5]: substantial lytic activity
- cytotoxic response [6]: triggered a specific cytotoxic response
